# According to patent US20210247385A1, “METHODS FOR ASSESSING TRANSENDOTHELIAL BARRIER INTEGRITY” (Hoffmann-La Roche Inc., priority 2018, published 2021):
# What was measured:
# hPSC-ECs (GFP+ cells) = test: Electric cell-substrate impedance sensing (ECIS) of transendothelial barrier integrity; type: cell-based, human; details: for effect on EC barrier in co-application with VEGFA (functional barrier assays): under both conditions, FIG. 5
# Procedure: Electric cell-substrate impedance sensing. TBI was detected in real time using the ECIS® Z-theta system (Applied Biophysics, McAlister G C, Nusinow D P, Jedrychowski M P, Wuhr M, Huttlin E L, Erickson B K, et al. Analytical chemistry. 2014; 86(14):7150-8.) using 96 well array plates (96widf, Applied Biophysics) at 250 Hz frequency. Plates were coated with 100 μL of fibronectin (25 μg/mL; for 30 min at RT), fibronectin was replaced by complete media and electrodes were stabilized for 1 h on the system. Afterwards, media was removed and hPSC-ECs were seeded (10,000 cells per well). Cells were left for 2 days to reach full confluency and then treated with compounds with or without VEGFA (50 ng/mL). All the treatments were performed in triplicates.
# [1] = test system: CLDN5 transcriptional reporter (CLDN5-P2A-GFP) in hPSC-EC; test: CLDN5-GFP reporter, percentage of GFP+ cells by FACS; type: cell-based, human
# Procedure: Fluorescence activated cell sorting and analysis. Human PSC-EC were dissociated from plates by Accutase (StemCell Technologies) and filtered before sorting with 30 μm filters (Miltenyi Biotec). Dissociated cells were kept in full media during sorting and sorted in cooled collection tubes with complete EC media supplemented with 20% FBS and 25 mM HEPES. Sorting was performed with BD FACS ARIA III (BD Biosciences) using 4-way purity precision mode. FACS plots were generated by Flowjo_V10 software. In case of RNA-seq minimum of 100,000 cells was sorted. After sorting, cells were spun down (610 g, 10 min) and lysed in 650 μL RLT lysis buffer (Qiagen)+β-mercaptoethanol (1%) and subsequently vortexed for 1 min at room temperature and snap frozen. In case of mass spectrometry analysis minimum of 10^6 cells was sorted, cells were washed with PBS^−(Life Technologies), spun down (110 g, 3 min), PBS was removed and cell pellets snap frozen.
# Compound library screening with fluorescence activated cell readout. Compounds were plated in replicate plates, and each plate had DMSO treated controls. ECs (10,000 cells per well) were seeded on fibronectin coated plates in full media. Cells were treated 2 days after seeding and the FACS measurement using MACS quant analyzer 10 (Miltenyi biotec) was performed. Screen data was analyzed in Flowjo_V10 software.
# hPSC-EC = test system: hPSC-EC
# Procedure: RNA isolation. RNA isolation from FACS sorted or cultured cells was performed using RNeasy micro kit or RNeasy mini kit (both Qiagen) or automated Maxwell Total RNA purification kit (Promega), all procedures included DNAse I digestion. Procedures were followed as described in the kit protocols.
# RNA-sequencing and analysis. Total RNA from the FACS sorted or cell cultured treated samples was subjected to oligo (dT) capture and enrichment, and the resulting mRNA fraction was used to construct complementary DNA libraries. Transcriptome sequencing (RNA-seq) was performed on the Illumina HiSeq platform using the standard protocol (TruSeq Stranded Total RNA Library, Illumina) that generated approximately 30 million reads of 50 base-pair per sample. FACS sorted experiments for GFP+ and GFP− cells were performed using 6 replicates each from 2 different clones. The RNA-seq reads were then mapped to the human genome (NCBI build 37) by using GSNAP (Wu T D, Nacu S. Bioinformatics (Oxford, England). 2010; 26(7):873-81.). Comparison was done between 12 samples of GFP+ and GFP− samples from two clones. TGFBR2 inhibitor treated hPSC-EC samples were mapped to the human genome (hg19/Refseq) using STAR (Dobin A, Davis Calif., Schlesinger F, Drenkow J, Zaleski C, Jha S, et al. Bioinformatics (Oxford, England). 2013; 29(1):15-21.) and counting was performed using union mode of HtSeq (Anders S, Pyl P T, Huber W. Bioinformatics (Oxford, England). 2015; 31(2):166-9.). Differential expression was performed using Deseq2 (Dobin A, Davis C A, Schlesinger F, Drenkow J, Zaleski C, Jha S, et al. Bioinformatics (Oxford, England). 2013; 29(1):15-21.). Gene set enrichment analysis was performed using GSEA (Subramanian A, Tamayo P, Mootha V K, Mukherjee S, Ebert B L, Gillette M A, et al. Proceedings of the National Academy of Sciences of the United States of America. 2005; 102(43):15545-50.) using Hallmarks MsigDb database (Liberzon A, Birger C, Thorvaldsdottir H, Ghandi M, Mesirov J P, Tamayo P. Cell systems. 2015; 1(6):417-25.) using weighted p2 analysis, following default conditions with ignoring gene sets smaller than 15 and larger than 5000 genes.
# TGFBR2 [2] = biological target: T1, TGFBR2 (Homo sapiens, UniProt P37173); test: Kd determination (DiscoveRx) TGFBR2; type: binding; details: data not shown
# T1 construct: purchased DiscoveRx
# Procedure: (§1) Competitive protein kinase binding assays. Kinome scan (468 kinases) was performed by scanMAX (DiscoveRx) at 1 μM. Kinome scan procedure has been followed as described in (Bemas M J, Cardoso F L, Daley S K, Weinand M E, Campos A R, Ferreira A J, et al. Nature protocols. 2010; 5(7):1265-72.). Kd determination for ACVR1B, TGFRB1, TGFBR2 and KDR has been done in duplicates with 11-point 3-fold serial dilution starting from 30 μM (DiscoveRx). All the compounds were dissolved in DMSO. Binding constants (Kds) were calculated with a standard dose-response curve using the Hill equation and the The Hill Slope was set to −1. Curves were fitted using a non-linear least square fit with the Levenberg-Marquardt algorithm.
# BMPR1B = biological target: T2, BMPR1B (Homo sapiens, UniProt O00238); test: Kinome scan (scanMAX, competitive protein kinase binding) BMPR1B; details: 1 μM; data not shown
# T2 construct: purchased DiscoveRx
# Procedure: as §1
# TGFBR2 [3] = biological target: T1, TGFBR2; test: Kinome scan (scanMAX, competitive protein kinase binding) TGFBR2; details: 1 μM; data not shown
# Procedure: as §1
# [4] = RNA-seq 8 h and 48 h after treatment
# T1 sequence (P37173 23-567): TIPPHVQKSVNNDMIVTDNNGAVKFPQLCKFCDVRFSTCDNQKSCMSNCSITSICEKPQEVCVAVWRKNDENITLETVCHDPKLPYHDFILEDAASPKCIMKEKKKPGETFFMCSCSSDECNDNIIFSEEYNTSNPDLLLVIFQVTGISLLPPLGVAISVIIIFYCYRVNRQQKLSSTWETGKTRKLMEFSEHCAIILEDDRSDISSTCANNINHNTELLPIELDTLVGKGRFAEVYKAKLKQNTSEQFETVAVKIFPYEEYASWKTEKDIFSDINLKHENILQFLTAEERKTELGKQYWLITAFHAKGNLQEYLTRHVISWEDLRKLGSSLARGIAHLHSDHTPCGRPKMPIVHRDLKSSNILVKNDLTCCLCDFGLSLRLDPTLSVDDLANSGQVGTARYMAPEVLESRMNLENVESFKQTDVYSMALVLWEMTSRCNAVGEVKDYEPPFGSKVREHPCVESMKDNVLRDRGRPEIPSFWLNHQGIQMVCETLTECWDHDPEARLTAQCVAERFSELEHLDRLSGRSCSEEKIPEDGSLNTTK
# T2 sequence (O00238 14-502): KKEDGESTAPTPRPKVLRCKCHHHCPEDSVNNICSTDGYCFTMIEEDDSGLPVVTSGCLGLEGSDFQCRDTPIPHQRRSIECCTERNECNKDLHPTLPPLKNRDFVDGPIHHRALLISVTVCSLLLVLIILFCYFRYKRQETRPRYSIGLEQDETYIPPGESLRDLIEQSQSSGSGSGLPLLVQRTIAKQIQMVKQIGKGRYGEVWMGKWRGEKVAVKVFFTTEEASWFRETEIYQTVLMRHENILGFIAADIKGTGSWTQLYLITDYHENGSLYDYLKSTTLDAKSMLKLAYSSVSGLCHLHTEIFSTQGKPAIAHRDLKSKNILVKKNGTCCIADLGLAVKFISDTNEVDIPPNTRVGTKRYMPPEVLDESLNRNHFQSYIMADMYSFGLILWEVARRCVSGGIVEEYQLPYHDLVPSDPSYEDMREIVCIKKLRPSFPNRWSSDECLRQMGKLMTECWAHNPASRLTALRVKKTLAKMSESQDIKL
structure (smiles),measurement,setting,value
CCN(CC)CCNC(=O)c1c(C)[nH]c(/C=C2\C(=O)Nc3ccc(F)cc32)c1C [SU11248],"resistance to barrier breakdown by VEGFA, ECIS","hPSC-ECs (GFP+ cells); cells treated with 5 μM SU11248, VEGFA 50 ng/mL",resistant to barrier breakdown by VEGFA
same,% of GFP+ cells,"[1]; 5 μM SU11248 for 2 days, FACS",99%
same,change in GFP+ (reporter gene positive) cells upon treatment,"[1]; FACS 2 days after treatment, VEGFA 50 ng/mL",increase of reporter gene positive cells
"NC(=O)c1ccc(-c2nc(-c3ccc4c(c3)OCO4)c(-c3ccccn3)[nH]2)cc1 [SB431542, 4-(4-Benzo[1,3]dioxol-5-yl-5-pyridin-2-yl-1H-imidazol-2-yl)-benzamide]",effect on EC barrier in co-application with VEGFA (functional barrier assays),hPSC-ECs (GFP+ cells); VEGFA 50 ng/mL,no effect
"Cc1cccc(-c2n[nH]cc2-c2ccc3ncccc3n2)n1 [Repsox, 2-[3-(6-Methyl-2-pyridinyl)-1H-pyrazol-4-yl]-1,5-naphthyridine]","BMP signaling (ENG, LRG1 and BMPR2)",hPSC-EC; [4],potently inhibited
same,CLDN5 expression,hPSC-EC; [4],strong upregulation
same,GSK3ß expression,hPSC-EC; [4],downregulation
same,PLVAP expression,hPSC-EC; [4],downregulation
same,RHOB expression,hPSC-EC; [4],Downregulation
same,SMAD6 (TGFß antagonist) expression,hPSC-EC; [4],inducing
same,expression of KDR (VEGFR2) and PECAM1 (CD31),hPSC-EC; [4],did not change
same,"expression of Wnt target genes (AXIN2, APCDD1, TNFRSF19) and receptors for Wnt FZD4 and LRP1",hPSC-EC; [4],upregulation
same,"expression of antagonists of BMP signaling (BMPER, GREM2 and GDF6)",hPSC-EC; [4],Most striking upregulation
same,"expression of inflammation genes (NFATC2, JAK1, JAK3 and ICAM1)",hPSC-EC; [4],downregulate
same,"expression of other tight junctions or regulators of tight junctions (MARVELD3, GJA4, GJA5, IFITM3)",hPSC-EC; [4],Upregulation
same,TGFß pathway regulation,hPSC-EC; RNA-seq / GSEA Hallmarks MsigDB,most potent compound
same,expression of SOX17 and KLF4,hPSC-EC; RNA-seq after treatment,Induction
same,VEGFR1 (FLT1) expression,"hPSC-EC; RNA-seq, data not shown",upregulated
same,"expression of angiogenesis related genes (ESM1, ANGPTL4 and PPARGC1A)","hPSC-EC; RNA-seq, data not shown",most potent compound in downregulating
same,"rescue of TBI, impedance real time measurement","hPSC-ECs (GFP+ cells); 10 μM, co-treatment with 50 ng/mL VEGFA, GFP+ cells",rescues the loss-of TBI induced by VEGFA treatment
same,effect on EC barrier in co-application with VEGFA (functional barrier assays),hPSC-ECs (GFP+ cells); VEGFA 50 ng/mL,strong EC barrier promoting effect
same,Kd (inhibitory activities) for TGFBR2,TGFBR2 [2],nanomolar inhibitory activities
same,"inhibition activity on BMPR1B, large kinase panel",BMPR1B,weaker inhibition activity
same,"inhibitory activity on TGFBR2, large kinase panel",TGFBR2 [3],strong inhibitory activity
Cc1cccc(-c2[nH]c(C(C)(C)C)nc2-c2ccc3c(c2)OCO3)n1 [SB505124],effect on EC barrier in co-application with VEGFA (functional barrier assays),hPSC-ECs (GFP+ cells); VEGFA 50 ng/mL,partial effect
"O=C(NC1CCOCC1)c1ccc(-c2cc(-c3c[nH]nc3-c3ccccn3)ccn2)cc1 [GW788388, 4-[4-[3-(2-Pyridinyl)-1H-pyrazol-4-yl]-2-pyridinyl]-N-(tetrahydro-2H-pyran-4-yl)-benzamide]",effect on EC barrier in co-application with VEGFA (functional barrier assays),hPSC-ECs (GFP+ cells); VEGFA 50 ng/mL,prevented barrier disruption with VEGFA
same,Kd (inhibitory activities) for TGFBR2,TGFBR2 [2],nanomolar inhibitory activities
same,"inhibition activity on BMPR1B, large kinase panel",BMPR1B,weaker inhibition activity
same,"inhibitory activity on TGFBR2, large kinase panel",TGFBR2 [3],strong inhibitory activity
